Where two headings read alike, the source gives them in different places.
Experiments:
[1] = tested on: in vivo preclinical models; parameters: method as in PMID 20571069; details: single agent; cited from earlier work
AKT3 [2] = tested on: AKT3; parameters: method as in ref 4 = [4]; 4. Lu W, Defeo-Jones D, Davis L et al (2009) In vitro and in vivo antitumor activities of MK-2206, a new allosteric Akt inhibitor [abstract #3714]. In: Proceedings of the 100th annual meeting of the A; details: several cancer cell lines; cited from earlier work
[3] = tested on: non-Japanese patients with advanced solid tumors; details: cited from earlier work
AKT2 [4] = tested on: AKT2; parameters: method as in ref 4 = [4]; 4. Lu W, Defeo-Jones D, Davis L et al (2009) In vitro and in vivo antitumor activities of MK-2206, a new allosteric Akt inhibitor [abstract #3714]. In: Proceedings of the 100th annual meeting of the A; details: several cancer cell lines; cited from earlier work
AKT1 kinase activity = target: AKT1 kinase activity; parameters: method as in ref 4 = [4]; 4. Lu W, Defeo-Jones D, Davis L et al (2009) In vitro and in vivo antitumor activities of MK-2206, a new allosteric Akt inhibitor [abstract #3714]. In: Proceedings of the 100th annual meeting of the A; details: several cancer cell lines; cited from earlier work
AKT3 [5] = tested on: AKT3; parameters: method as in ref 3 = [3]; 3. Yan L (2009) MK-2206: a potent oral allosteric AKT inhibitor [abstract #DDT01-1]. In: Proceedings of the 100th annual meeting of the American association for cancer research, Denver, CO, 18–22 Apr; details: purified recombinant AKT3, in vitro; cited from earlier work
advanced solid tumors = test: tumor response according to RECIST version 1.0 in Japanese patients; assay type: in vivo, human
Protocol: The anti-tumor activity was evaluated at baseline and every 6 weeks according to the Response Evaluation Criteria In Solid Tumors (RECIST), version 1.0.

[6] = plasma pharmacokinetics in Japanese patients (HPLC-MS/MS); assay type: in vivo, human; details: for AUC(0-t) / concentration at 48 h / Cmax / Tmax / half-life: human, plasma, oral; for half-life: read-out: Apparent terminal t½ (converted)
Protocol: Blood samples for the QOD dosing schedule were collected for PK analyses just before and 2, 4, 6, 10, 24, and 48 h after MK-2206 dosing on days 1 and 27 of Cycle 1. After the final dose of MK-2206 during Cycle 1, blood samples were drawn 96, 144, and 192 h postdose during the 1-week rest period. Samples were also drawn directly before MK-2206 treatment on days 7, 15, and 21. Blood samples for the QW dosing schedule were collected for PK analyses just before and 2, 4, 6, 10, 24, 48, and 96 h after MK-2206 dosing on days 1 and 22 of Cycle 1. After the final dose of MK-2206 in Cycle 1, blood samples were drawn 168 and 240 h postdose during the 1-week rest period. Samples were also drawn directly before MK-2206 treatment on days 8 and 15. The blood samples were centrifuged, and the plasma was separated and stored at −20 °C. The plasma concentrations were analyzed using high-performance liquid chromatography with tandem mass spectroscopy (HPLC–MS/MS) at Merck Research Labs, West Point, PA.
PK differences were observed after exposure to MK-2206 in Japanese patients, compared with non-Japanese patients. Consequently, the PK data were analyzed using t tests and nonparametric Wilcoxon–Mann–Whitney tests because of potential differences in variance. […] No differences in Tmax were observed.

AKT pathway = tested on: AKT pathway; parameters: method as in PMID 25239610; details: continuous QOD and intermittent QW dosing, serially obtained tumor and platelet-rich plasma; cited from earlier work
AKT2 [7] = tested on: AKT2; parameters: method as in ref 3 = [3]; 3. Yan L (2009) MK-2206: a potent oral allosteric AKT inhibitor [abstract #DDT01-1]. In: Proceedings of the 100th annual meeting of the American association for cancer research, Denver, CO, 18–22 Apr; details: purified recombinant AKT2, in vitro; cited from earlier work
[8] = non-Japanese patients; cited from earlier work

NC1(c2ccc(-c3nc4ccn5c(=O)[nH]nc5c4cc3-c3ccccc3)cc2)CCC1 [MK-2206]
anti-tumor activity [1]: showed anti-tumor activity
potency on AKT3 activity relative to AKT1 (AKT3 [2]): two to sixfold less potently
patients who experienced a DLT ([3]; 60 mg QOD, grade 3 skin rash): One of 20
patients who experienced a DLT, percent ([3]; 60 mg QOD): 5.0%
patients who experienced DLTs ([3]; 200 mg QW, grade 3 skin rash (three), grade 3 dermatitis acneiform (one)): Four of 17
patients who experienced DLTs, percent ([3]; 200 mg QW): 23.5%
maximum tolerated dose (MTD) ([3]; QOD dosing schedule): 60 mg/day
maximum tolerated dose (MTD) ([3]; QW dosing schedule): 200 mg/day
potency on AKT2 activity relative to AKT1 (AKT2 [4]): two to sixfold less potently
IC50 (AKT1 kinase activity): ~20 nM
IC50 (AKT3 [5]): 65 nM
tumor responses (RECIST 1.0) (advanced solid tumors; 24 patients evaluated): no tumor responses
patients with SD lasting longer than 4 months (advanced solid tumors; all cohorts): 6 of the 24
patients with SD lasting longer than 4 months, percent (advanced solid tumors; all cohorts): 25%
patients with SD for 6 months or longer (advanced solid tumors; one mediastinal tumor, one esophageal cancer): two patients
patients with stable disease (SD) for 4 months or longer (advanced solid tumors; two cervical cancer, one leiomyosarcoma, one breast cancer): Four patients
Tmax First dose ([6]; 45 mg QOD (n = 3), Day 1, median (min–max)): 4.0 (4.0–6.0) h
Apparent terminal t½ ([6]; 45 mg QOD (n = 3), harmonic mean ± pseudo SD): 79.6 ± 8.5 h
GMR C48-h ([6]; 45 mg QOD, geometric mean ratio CDay27/CDay1): 5.02
Tmax Last dose ([6]; 60 mg QOD (n = 9), Day 27, median (min–max)): 6.0 (2.0–10.0) h
GMR C48-h ([6]; 60 mg QOD, geometric mean ratio CDay27/CDay1): 3.68
GMR C48-h ([6]; 135 mg QW, geometric mean ratio CDay22/CDay1): 1.25
GMR C48-h ([6]; 200 mg QW, geometric mean ratio CDay22/CDay1): 1.78
mean exposure values (Cmax and AUC), Japanese versus non-Japanese patients ([6]; 45- and 60-mg QOD and 200-mg QW cohorts, higher): 1.4–1.9 fold
mean exposure values (Cmax and AUC), Japanese versus non-Japanese patients ([6]; 135-mg QW cohort, lower): 0.7–1.3
AUC, Cmax and Ctrough versus non-Japanese patients ([6]; 200-mg QW cohort, P < 0.05): significantly higher
AUC(0-t) ([6]; 45 mg, 45 mg QOD (n = 3), Day 1, AUC0–48h, geometric mean (coefficient of variation), read-out: AUCt First dose): 1.85 µM·h
concentration at 48 h ([6]; 45 mg, 45 mg QOD (n = 3), Day 1, geometric mean (coefficient of variation), read-out: C48-h First dose): 28.8 nM
Cmax ([6]; 45 mg, 45 mg QOD (n = 3), Day 1, geometric mean (coefficient of variation), read-out: Cmax First dose): 60.5 nM
AUC(0-t) ([6]; 45 mg, 45 mg QOD (n = 3), Day 27, AUC0–48h, geometric mean (coefficient of variation), read-out: AUCt Last dose): 8.49 µM·h
concentration at 48 h ([6]; 45 mg, 45 mg QOD (n = 3), Day 27, geometric mean (coefficient of variation), read-out: C48-h Last dose): 144 nM
Cmax ([6]; 45 mg, 45 mg QOD (n = 3), Day 27, geometric mean (coefficient of variation), read-out: Cmax Last dose): 214 nM
AUC(0-t) ([6]; 60 mg, 60 mg QOD (n = 9), Day 1, AUC0–48h, geometric mean (coefficient of variation), read-out: AUCt First dose): 2.72 µM·h
concentration at 48 h ([6]; 60 mg, 60 mg QOD (n = 9), Day 1, geometric mean (coefficient of variation), read-out: C48-h First dose): 40.6 nM
Cmax ([6]; 60 mg, 60 mg QOD (n = 9), Day 1, geometric mean (coefficient of variation), read-out: Cmax First dose): 95.9 nM
AUC(0-t) ([6]; 60 mg, 60 mg QOD (n = 9), Day 27, AUC0–48h, geometric mean (coefficient of variation), read-out: AUCt Last dose): 9.69 µM·h
concentration at 48 h ([6]; 60 mg, 60 mg QOD (n = 9), Day 27, geometric mean (coefficient of variation), read-out: C48-h Last dose): 152 nM
Cmax ([6]; 60 mg, 60 mg QOD (n = 9), Day 27, geometric mean (coefficient of variation), read-out: Cmax Last dose): 277 nM
Tmax ([6]; 60 mg, QOD dosing (45 or 60 mg), Japanese patients, read-out: median Tmax): 4 to 6 h
AUC(0-t) ([6]; 135 mg, 135 mg QW (n = 3), Day 1, AUC0–168h, geometric mean (coefficient of variation), read-out: AUCt First dose): 9.68 µM·h
concentration at 48 h ([6]; 135 mg, 135 mg QW (n = 3), Day 1, geometric mean (coefficient of variation), read-out: C48-h First dose): 83.2 nM
Cmax ([6]; 135 mg, 135 mg QW (n = 3), Day 1, geometric mean (coefficient of variation), read-out: Cmax First dose): 234 nM
AUC(0-t) ([6]; 135 mg, 135 mg QW (n = 3), Day 22, AUC0–168h, geometric mean (coefficient of variation), read-out: AUCt Last dose): 12.8 µM·h
concentration at 48 h ([6]; 135 mg, 135 mg QW (n = 3), Day 22, geometric mean (coefficient of variation), read-out: C48-h Last dose): 104 nM
Cmax ([6]; 135 mg, 135 mg QW (n = 3), Day 22, geometric mean (coefficient of variation), read-out: Cmax Last dose): 244 nM
AUC(0-t) ([6]; 135 mg, 135 mg QW, Day 22, read-out: AUC0–48h): 12.8 µM·h
AUC(0-t) ([6]; 200 mg, 200 mg QW (n = 9), Day 1, AUC0–168h, geometric mean (coefficient of variation), read-out: AUCt First dose): 24.3 µM·h
concentration at 48 h ([6]; 200 mg, 200 mg QW (n = 9), Day 1, geometric mean (coefficient of variation), read-out: C48-h First dose): 186 nM
Cmax ([6]; 200 mg, 200 mg QW (n = 9), Day 1, geometric mean (coefficient of variation), read-out: Cmax First dose): 439 nM
AUC(0-t) ([6]; 200 mg, 200 mg QW (n = 9), Day 22, AUC0–168h, geometric mean (coefficient of variation), read-out: AUCt Last dose): 37.6 µM·h
concentration at 48 h ([6]; 200 mg, 200 mg QW (n = 9), Day 22, geometric mean (coefficient of variation), read-out: C48-h Last dose): 302 nM
Cmax ([6]; 200 mg, 200 mg QW (n = 9), Day 22, geometric mean (coefficient of variation), read-out: Cmax Last dose): 571 nM
Tmax ([6]; 200 mg, 200 mg QW (n = 9), Day 22, median (min–max), read-out: Tmax Last dose): 5 h
AUC(0-t) ([6]; 200 mg, 200 mg QW, Day 22, read-out: AUC0–48h): 37.6 µM·h
Tmax ([6]; 200 mg, QW dosing (135 and 200 mg), Japanese patients, read-out: median Tmax): 4 to 6 h
half-life ([6]; 60 mg QOD (n = 9), harmonic mean ± pseudo SD): 71.8 ± 8.9 h
half-life ([6]; 135 mg QW (n = 3), harmonic mean ± pseudo SD): 69.3 ± 8.9 h
half-life ([6]; 200 mg QW (n = 9), harmonic mean ± pseudo SD): 75.6 ± 9.7 h
AKT pathway blockade (AKT pathway): Significant AKT pathway blockade
IC50 (AKT2 [7]): 12 nM
apparent terminal half-life (t½) [8]: 60 to 90 h
terminal elimination half-life [8]: 60 to 80 h

From article PMC4515243, “Phase 1 pharmacokinetic study of the oral pan-AKT inhibitor MK-2206 in Japanese patients with advanced solid tumors” (Cancer Chemotherapy and Pharmacology, 2015)
